Assay results: patent US9463330B2, “Delivery of skin care products” (INTERNATIONAL SCIENTIFIC PTY LTD, priority 2010, dated 2016)

Legend:
human skin = test: Delivery of Curcumin into human skin by Multi-Photon Microscopy (Example 4); assay type: in vivo; settings: 0.5% w/w in mineral oil, one hour, volar forearm
Source text: • 1) Mineral oil and a solution of Curcumin in mineral oil (0.5% w/w). • 2) 35 mm×35 mm segments of ETP008 and ETP012 magnetic materials; ETP008 being a parallel linear array of common pole pairs of 450 gauss peak flux with a centre to centre spatial separation of 4 mm; ETP012 being an oriented displaced dipolar magnetic element array created by drawing a secondary flux pattern over a linear pattern comprising 2.0 mm poles, creating a pair of displaced dipolar magnetic elements of pitch of 2.5 pairs per centimeter, with the inter-pair flux gradient being 700 gauss or 1750 gauss per centimeter and the secondary field elements being oriented at 90 degrees to the primary and consisting of parallel pairs of displaced dipolar magnetic elements of pitch of 1.5 mm, creating 3.5 pairs per centimeter, with 300 gauss per centimeter oriented flux. • 3) 35 mm×35 mm segments of a “passive” non-magnetic material which is identical to the active materials in all respects except for the presence of the magnetic field. • 4) Six healthy human subjects between the ages of 20 and 40. • 5) Multi-Photon Microscopy apparatus and computer software capable of processing Multi-Photon microscopy images. […]

human epidermal tissues = test: Time dependent epidermal thickness change after 5% Urea gel, four magnetic array configurations vs passive (Example 3); assay type: in vivo; settings: 30 and 60 minutes
Procedure: As a further example, an additional experiment was undertaken to explore the time dependent changes in measured epidermal thickness using four different configurations of the present invention when compared to passive application.
As in previous examples, all test areas of skin were treated using a 5% Urea gel formation and occluded with Parafilm. The urea and occlusive dressings were removed at 30 minutes and 60 minutes to allow measurements to be taken, with the urea and dressing being immediately replaced after the 30 minute test. Four different arrangements of the pairs of displaced magnetic dipolar elements present invention were studied to elucidate the complex relationship between enhanced delivery to human skin and the specific arrangements of the pairs of displaced dipolar elements that make up the present invention.
The four arrangements of pairs of displaced dipolar elements used in this experiment were as follows:
Type ETP000 was a form of the present invention is which a parallel linear array of common pole pairs of 250 gauss peak flux with a centre to centre spatial separation of 2 mm.
Type ETP006 was a combination of two intersecting parallel linear common pole arrays at 90 degrees orientation to each other having a peak magnetic flux of 300 gauss and a spatial separation between pairs of 3.5 mm.
Type ETP008 was a parallel linear array of common pole pairs of 450 gauss peak flux with a centre to centre spatial separation of 4 mm.
Type ETP011 was a combination of two intersecting parallel linear common pole arrays at 90 degrees orientation to each other having a peak magnetic flux of 150 gauss and a spatial separation between pairs of 3 mm.
The segment marked Passive indicted the normal changes in epidermal thickness in response to topical and occluded application of a Urea Gel. This is considered the control.

human epidermis [1] = test: Time dependent epidermal thickness change by OCT after Urea, two magnetic array types vs passive (Example 2); assay type: in vivo; settings: for increase in epidermal thickness: passive regions
Source text: In a further in vivo experience, two examples of arrays comprising pairs of displaced magnetic dipolar elements of the present invention were studied to illustrate the essential requirement for the pairs of displaced magnetic dipolar elements to be correctly configured to the diamagnetic property of the active ingredient to be delivered, in addition to the dielectric properties of the target receptor barrier.
Urea was applied to skin in a similar manner to Example 1. The urea and occlusive dressings were removed at 10 minute time periods to take measurements using OTC, with the urea and occlusive dressing being immediately replaced after each set of measurements. Each site was imaged in triplicate for each time point (i.e. three sites, triplicate images, seven time points). The laser images were then analysed to determine the differential change in skin morphology in response to the penetration of urea into facial skin under the influence of two different configurations of the present invention. FIG. 12 summaries this experiment, with the thickness of the epidermis provided next to the image.
Magnetic array Type ETP000 is a magnetic array in which a parallel linear array of common pole pairs of 250 gauss peak flux with a centre to centre spatial separation of 2 mm. Magnetic array Type ETP008 is a parallel linear array of common pole pairs of 450 gauss peak flux with a centre to centre spatial separation of 4 mm.

human epidermis [2] = test: In vitro diffusion of urea across human epidermal membranes in Franz-type cells (Example 5); assay type: in vitro ADME; settings: 5% urea gel
Source text: • 1) 5% w/w urea in VersaBase Gel (PCCA, Huston, Tex.). • 2) 11 mm diameter discs of flexible magnetic array matrix (ETP008) material and “passive” non-magnetic material which are identical to the active materials in all respects except for the presence of the magnetic field. • 3) Passive occlusive material consisting of a polymer film of similar thickness and cut to the same dimensions as the active magnetic polymer material. • 4) Epidermal membranes obtained from human skin sourced from abdominal region following abdominoplasty surgery. • 5) Pyrex glass Franz-type diffusion cells (enabling permeation across epidermal membranes of cross sectional area approximately 1.18 cm^2); receptor volume approximately 3.5 mL. • 6) Phosphate buffered saline (PBS). • 7) Thermostatted water bath with magnetic stirring capability. • 8) DMAB reagent (4% w/v) prepared with conc. sulphuric acid (4% v/v) in alcohol (95%). • 9) Digital portable LCR meter (TH2821/A/B, Changzhou Tonghui Electronic Co., Ltd, China). Method Preparation of Epidermal Membranes
Epidermal membranes were obtained by the heat separation method (Kligman & Christophers, 1963 Preparation of isolated sheets of human stratum corneum. Arch. Dermatol. 88: 70-73).
• 1) The membrane was placed between the donor and receptor compartment of the cell and allowed to equilibrate for 1 h with PBS in the receptor compartment which was stirred continuously with a magnetic stirrer. • 2) PBS was placed in the donor (1 mL) and receptor (approx. 3.5 mL) compartments of the cell which were then placed in a water bath maintained at 37±0.5° C. • 3) Epidermal membrane integrity was determined by visual inspection over a bright light and electrical resistance (kΩ) measurements using a digital portable LCR meter (TH2821/A/B, Changzhou Tonghui Electronic Co., Ltd, China). The measurements were taken by immersing the stainless steel probe lead tips, one each in the donor and receptor compartments (Fasano et al, 2002 Rapid integrity assessment of rat and human epidermal membranes for in vitro dermal regulatory testing: correlation of electrical resistance with tritiated water permeability. Toxicol. In Vitro 16: 731-40). […] Spectroscopic Analyses:
Urea quantification was based on the analytical method of Knorst et al 1997 (Analytical methods for measuring urea in pharmaceutical formulations. J. Pharm. Biomed. Anal. 15: 1627-32), a modified derivatisation by p-dimethylaminobenzaldehyde (DMAB) to convert urea into a coloured compound.
Derivatisation of urea in skin diffusate employed equal volumes of sample solution and the DMAB reagent (4% w/v) which was prepared with conc. sulphuric acid (4% v/v) in alcohol (95%). In this case 200 μL of the urea sample was mixed with 200 μL of the DMAB reagent. After 10 min the absorbance of the coloured derivatised solution was measured at 420 nm using a UVmini-1240 UV-Vis spectrophotometer (Shimadzu Scientific Instruments) against an appropriate reagent blank (receptor solution processed as for skin permeation receptor solution samples). Spectrophotometric analysis was carried out for quantitative analysis of urea that permeated the skin. […] The limit of detection (LOD) and limit of quantitation (LOQ) of the assay were 0.83 and 2.5 μg/mL respectively.
The results were compiled from nine cells containing the magnetic array film and eight control cells containing the passive non-magnetic film. A comparison of the cumulative amount of urea penetrating the epidermis to the receptor solution (μg/cm^2) versus time (mins) was plotted for passive and magnetic array enhanced applications (FIG. 16).

Structure (SMILES) | Curcumin concentrations in the skin compared with passive material (human skin; ETP008 magnetic material) | Curcumin concentrations in the skin compared with passive material (human skin; ETP012 magnetic material) | penetration (changes in epidermal thickness) compared to passive (human epidermal tissues; Type 011 arrangement, 5% Urea gel) | penetration (changes in epidermal thickness) compared to passive (human epidermal tissues; Type ETP000, 5% Urea gel) | penetration (changes in epidermal thickness) compared to passive (human epidermal tissues; Type ETP006, 5% Urea gel) | penetration (changes in epidermal thickness) compared to passive (human epidermal tissues; Type ETP008, 5% Urea gel) | epidermal thickness change (human epidermis [1]; Magnetic array Type ETP000, 30 minutes) [%] | epidermal thickness change (human epidermis [1]; Magnetic array Type ETP000, 60 minutes) [%] | epidermal thickness change (human epidermis [1]; Magnetic array Type ETP008, 30 minutes) [%] | epidermal thickness change (human epidermis [1]; Magnetic array Type ETP008, 60 minutes) [%] | increase in epidermal thickness (human epidermis [1]; 30 minutes) [%] | increase in epidermal thickness (human epidermis [1]; 60 minutes) [%] | mean cumulative permeation over 2 h (human epidermis [2]; magnetic array material ETP008, mean±sem) [μg/cm^2] | lag time (human epidermis [2]; magnetic film array ETP008) [min] | steady state flux (human epidermis [2]; magnetic film array ETP008) [μg/cm^2·min] | lag time (human epidermis [2]; non-magnetic passive material) [min] | steady state flux (human epidermis [2]; non-magnetic passive material) [μg/cm^2·min] | mean cumulative permeation over 2 h (human epidermis [2]; non-magnetic passive material, mean±sem) [μg/cm^2]
COc1cc(/C=C/C(=O)CC(=O)/C=C/c2ccc(O)c(OC)c2)ccc1O [Curcumin] | significant increase | significant increase | – | – | – | – | – | – | – | – | – | – | – | – | – | – | – | –
NC(N)=O [Urea] | – | – | decreasing normal penetration | enhanced penetrations to different degrees over time | enhanced penetrations to different degrees over time | enhanced penetrations to different degrees over time | 119.5 | 113.25 | 112.6 | 118 | 103.2 | 110 | 89.54±7.34 | 21.13 ± 6.27 | 0.75±0.06 | 40.58 ± 3.98 | 0.24±0.03 | 20.83±2.02
